Reference: patent publication US20120156150A1, “Composition for Improving Skin Condition Comprising Extract from Black Tea as Active Ingredient” (Keimyung University Industry Academic Cooperation Foundation, priority 2010, published 2012)
Marks after values point to notes of the source that are not given here.

Tests used:
tyrosinase [1] = target: T1, tyrosinase (Mus musculus, UniProt P11344); experiment: Cell-extracted tyrosinase activity of Melan-a cells; type: biochemical; conditions: 12.5 μg/mL, compared with the control group
T1 construct: endogenous in cells; host or cells: Melan-a cells
T1 sequence (P11344 19-533): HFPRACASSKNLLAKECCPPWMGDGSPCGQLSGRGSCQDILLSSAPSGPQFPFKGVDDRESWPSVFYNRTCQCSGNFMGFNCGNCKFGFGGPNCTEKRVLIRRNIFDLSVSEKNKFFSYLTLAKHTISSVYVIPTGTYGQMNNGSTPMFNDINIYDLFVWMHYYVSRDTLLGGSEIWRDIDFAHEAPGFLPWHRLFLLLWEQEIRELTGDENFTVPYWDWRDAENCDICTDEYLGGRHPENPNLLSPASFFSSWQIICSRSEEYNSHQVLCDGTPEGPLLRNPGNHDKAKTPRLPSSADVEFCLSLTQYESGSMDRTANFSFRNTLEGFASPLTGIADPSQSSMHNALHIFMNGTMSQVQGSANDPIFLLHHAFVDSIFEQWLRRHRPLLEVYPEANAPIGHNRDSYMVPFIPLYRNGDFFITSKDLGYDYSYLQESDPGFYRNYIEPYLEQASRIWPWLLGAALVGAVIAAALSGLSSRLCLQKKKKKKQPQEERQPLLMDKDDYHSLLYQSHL
Description: (§1) Melan-a cells were seeded on a 60 φ cell culture dish (4×10^5 cells/well) and cultured in a 10% CO2 incubator at 37° C. for 72 hours. After washing with PBS, the cells were suspended by adding 200 μL of 1% triton X-100 to the culture dish, transferred to an e-tube, and fixed on ice. 60 minutes later, after shaking for 2-3 seconds, the cells were centrifuged at 4° C. and 14,000 rpm for 20 minutes to obtain 50 μL of protein, which was mixed with 49 μL of 0.1 M phosphate buffer (pH 6.8) and 1 μL of AT, EGCG, GT, WT or BT (1.563, 3.125, 6.25 or 12.5 μg/mL). After allowing the mixture to stand for 1 hour and adding 100 μL of L-DOPA, the mixture was incubated in a 10% CO2 incubator at 37° C. for 1 hour. Absorbance was measured at 490 nm using an ELISA reader. Tyrosinase activity was calculated according to the following equation: % inhibition=[1−(Asample/Ablank)]×100, wherein Ablank is the absorbance of the control group (excluding the test sample) and Asample is the absorbance of the test compound.

Melan-a cells [2] = experiment: MTT assay, viability of Melan-a cells; type: cell-based, mouse
Description: (§2) Melan-a cells were purchased from Dr. Dorothy Bennett (St. George's Hospital, UK). Immortalized Melan-a cells with high pigment content are derived from C57BL/6 mouse. The cells were cultured using Roswell Park Memorial Institute (RPMI)-1640 medium containing 10% fetal bovine serum (FBS), 1% penicillin/streptomycin (P/S) and 200 nM 12-O-tetradecanoylphorbol 13-acetate (TPA) in a 10% CO2 incubator at 37° C. for 72 hours.
Melan-a cells were seeded on a 96-well plate (0.5×10^4 cells/well) and cultured in a 10% CO2 incubator at 37° C. for 24 hours. After adding 200 μL of AT, KA, EGCG, GT, WT or BT diluted to various concentrations (3.125, 6.25, 12.5, 25 and 50 μg/mL) using RPMI-1640 medium to the wells, the cells were cultured in a 10% CO2 incubator at 37° C. for 48 hours. Then, the cells were cultured in a medium containing […] in a 10% CO2 incubator at 37° C. for 3 hours. Subsequently, after settling the cells by centrifuging the plate at 1,000 rpm for 10 minutes, the medium was removed. Then, 200 μL of DMSO was added and the cells were suspended for 15 minutes in a plate shaker. Absorbance was measured at 540 nm using an ELISA reader. Cell viability (%) was calculated according to the following equation: % cell viability=(Asample/Ablank)×100, wherein Ablank is the absorbance of the control group (excluding the test sample) and Asample is the absorbance of the test compound.

Melan-a cells [3] = experiment: Melanin analysis in Melan-a cells; type: cell-based, mouse; conditions: 12.5 μg/mL, compared with the control group
Description: as §2
Melan-a cells were seeded on a 96-well plate (2×10^4 cells/well) and cultured in a 10% CO2 incubator at 37° C. for 24 hours. Then, after adding 200 μL of AT, KA, EGCG, GT, WT or BT diluted to various concentrations (1.563, 3.125, 6.25 and 12.5 μg/mL) using RPMI-1640 medium to the wells, the cells were cultured in a 10% CO2 incubator at 37° C. for 72 hours, and then washed. This procedure was repeated several times. After dissolving Melanin with 1N NaOH, absorbance was measured at 490 nm using an ELISA reader. Melanin content (%) was calculated according to the following equation: % melanin content=(Asample/Ablank)×100, wherein Ablank is the absorbance of the control group (excluding the test sample) and Asample is the absorbance of the test compound.

[4] = Electron donating ability (DPPH radical scavenging, Blois' method); conditions: 800 μg/mL
Description: DPPH radical scavenging effect was measuring according to the Blois' method (1958). […] After adding 1 mL of the test sample in a test tube, 4×10^−4 M DPPH (4 mL) was added. The resulting mixture was shaken vigorously, allowed to stand in warm water of 60° C. for 10 seconds, and absorbance was measured at 525 nm. BHT was used as the positive control group. Then, free radical scavenging activity of each solution was calculated as “% inhibition” according to the following equation: % inhibition=[1−(Asample/Ablank)]×100, wherein Ab1ank is the absorbance of the control group (excluding the test sample) and Asample is the absorbance of the test compound.

tyrosinase [5] = experiment: Western blotting, expression of tyrosinase protein in Melan-a cells; type: cell-based, mouse
Description: Protein concentration in the cell lysate was measured using the Pierce protein assay kit (Pierce Biotechnology, Inc., Rockford, USA), using BSA as standard. After adding same quantity of protein ([…]) on each lane, the proteins were separated by electrophoresis on 10% polyacrylamide gel. After transblotting onto nitrocellulose membrane, the membrane was incubated with PEP7 (1:10000 dilution, anti-tyrosinase antibody), PEP1 (1:10000 dilution, anti-TRP1 antibody) and PEP8 (1:10000 dilution, anti-TRP2 antibody). Then, the membrane was incubated with horseradish peroxidase-conjugated anti-rabbit IgG (1:1000 dilution; Amersham, Bucks, UK). Immunoreactive bands were detected by chemiluminescence using the ECL western blotting detector (Amersham, Bucks, UK). Band intensity was measured using the ImageJ program (NIH, Bethesda, USA). β-actin was used as internal control group for the immunoblotting.

tyrosinase [6] = target: T1, tyrosinase; experiment: Intracellular tyrosinase activity of Melan-a cells; type: biochemical; conditions: 12.5 μg/mL, compared with the control group
Description: as §1, with “for 24” for “for 72”, “and Asampie” for “and Asample”

[7] = tested on: melanin pigmentation in the epithelium; experiment: Fontana-Masson's silver staining, melanin-pigmented area; type: in vivo, brown guinea pig; conditions: week 4; 2% sample
Description: In order to observe the morphological change of the skin tissue using an optical microscope, the extracted skin tissue was fixed in a 10% neutral formalin solution for 12 hours and washed with flowing water. After dehydrating in 70, 80, 95 and 100% ethanol followed by washing with xylene, the tissue was embedded in paraffin and 4 μm-thick samples were prepared using a microtome.
Paraffin was removed from the sample using xylene. After staining the sample for 60 minutes in silver nitrate solution at 56° C. according to the Masson's method (1928), followed by washing, color-toning 0.2% gold chloride solution and washing again, the sample was kept in 5% sodium thiosulfate solution for 5 minutes. Subsequently, after washing the sample once again, followed by counterstaining in nuclear fast red solution, dehydration in 95%, 95%, 100% and 100% alcohol and washing with xylene, the sample was put in Canada balsam for microscopic observation. The percentage of the melanin-pigmented area was calculated using an image analysis software.

S-100 protein = experiment: Immunohistochemical S-100 staining; type: in vivo, brown guinea pig; conditions: week 4; 2% sample
Description: (§3) After dehydration, followed by washing with xylene and embedding in paraffin, 4 μm-thick samples were prepared. The sample was adhered on a coating slide and stained using the BenchMark XT automated immunostainer (Ventana Medical Systems, USA) after removing paraffin. […] Following reaction with S-100 and HMB-45 primary antibodies diluted to 1:100, the sample was washed with reaction buffer, reacted with biotin for 20 minutes, and then reacted with streptavidin for 25 minutes. After coloring with diaminobenzidine (DAB) using the Ventana detection kit), the sample was stained for observation using an optical microscope.

gp100 protein = experiment: Immunohistochemical HMB-45 staining (gp100); type: in vivo, brown guinea pig; conditions: week 4; 2% sample
Description: as §3

[8] = tested on: UVB-induced hyperpigmentation; experiment: Melanin index (mexameter), brown guinea pig; type: in vivo; conditions: 2% sample topical
Description: Three brown guinea pigs weighing 450-550 g were purchased from Oriental Yeast Co. Ltd. (OYC; Japan). The animals were accustomed to the test environment for 7 days. The animals were housed in individual cages under the environment of 22±1° C. and 50±5% relative humidity with 12-hour alternate dark/light cycles. Feed and water were given ad libitum.
UVB-induced hyperpigmentation was elicited on the back of the brown guinea pig according to the method of Choi et al. (2004). After anesthetizing the guinea pig with ketamine hydrochloride (100 mg/kg BW), 24 separate areas (φ 12 mm) on the skin of the back was exposed to UVB radiation (302-nm sunlamp). The areas were exposed to UVB of 500 mJ/cm^2 for 3 consecutive weeks, once a week. That is, a total of 1,500 mJ/cm^2 of UVB was radiated.
On day 10 after the final UVB radiation, 30 μL (1.06 mg/cm^2/day) of 2% HQ, EGCG, GT, WT or BT was topically applied for 4 weeks to the hyperpigmented areas (9 areas per each) using a micropipette, twice a day, and 4 days a week. Saline was used as control, and propylene glycol:ethanol:water (5:3:2) was used as vehicle control.
Before and after the topical application of the test sample, change in melanin pigmentation was measured 3 times in a non-invasive manner using a mexameter, once a week. The degree of pigmentation was analyzed by averaging the measured values.

OC[C@H]1O[C@@H](Oc2ccc(O)cc2)[C@H](O)[C@@H](O)[C@@H]1O [AT, arbutin]
tyrosinase activity in cell extract (decreased) by (tyrosinase [1]): 13% | maximum permissible level (MPL) (Melan-a cells [2]; mouse, 48 h): exceeds 50 μg/mL | melanin content decreased by (Melan-a cells [3]): 18% | Electron donating ability [4]: 44% | expression of tyrosinase protein (tyrosinase [5]): no significant decrease | intracellular tyrosinase activity decreased by (tyrosinase [6]): 12%

O=C(O[C@@H]1Cc2c(O)cc(O)cc2O[C@@H]1c1cc(O)c(O)c(O)c1)c1cc(O)c(O)c(O)c1 [EGCG, epigallocatechin gallate]
tyrosinase activity in cell extract (decreased) by (tyrosinase [1]): 18% | maximum permissible level (MPL) (Melan-a cells [2]; Melan-a cells): 12.5 µg/mL | melanin content decreased by (Melan-a cells [3]): 29% | Electron donating ability [4]: 94% | % of melanin pigment [7]: 10.5 ± 2.0^c % | Melanin pigment area [7]: 1174 ± 189 μm^2 | melanin pigmented area decreased by, as compared to the control group [7]: 48% | intracellular tyrosinase activity decreased by (tyrosinase [6]): 61% | % of S-100 Protein (S-100 protein): 5.3 ± 0.7^bc % | S-100 Protein area (S-100 protein): 611 ± 81 μm^2 | area of S-100 protein expression, decrease by, as compared to the control groups (S-100 protein): 62% | % of Melanin pigment (Table 5, gp 100 protein) (gp100 protein): 5.3 ± 0.8^c % | Melanin pigment (area; Table 5, gp 100 protein) (gp100 protein): 600 ± 107 μm^2 | area of gp 100 protein expression, decrease by, as compared to the group C (gp100 protein): 61% | melanin index ([8]; week 0): 723.5 ± 11.3^a AU | melanin index ([8]; week 1): 704.1 ± 12.5^a* AU | melanin index ([8]; week 2): 675.9 ± 12.4^c AU | melanin index ([8]; week 3): 636.6 ± 12.2^b AU | melanin index ([8]; week 4): 582.9 ± 12.8^b AU | melanin index decreased by, as compared to the group C ([8]; week 4): 17%
